From ChEMBL document CHEMBL3885881, “DrugMatrix”

Species on record: Rattus norvegicus
Assay: DrugMatrix - Regimen: Daily Repeat
Type: toxicity, organism-based, Sprague-Dawley
Design: regimen Daily Repeat, gender Male, age 6-8 weeks
Conditions: in vivo, iv, vehicle 100 % SALINE; for ABSOLUTE BASOPHIL / ABSOLUTE EOSINOPHIL / ABSOLUTE LYMPHOCYTE / ABSOLUTE MONOCYTE / ABSOLUTE SEGMENTED NEUTROPHIL / BASOPHIL / EOSINOPHIL / ERYTHROCYTE COUNT / HEMATOCRIT / HEMOGLOBIN / LEUKOCYTE COUNT / LYMPHOCYTE / MEAN CORPUSCULAR HEMOGLOBIN / MONOCYTE / NEUTROPHIL / NUCLEATED RED BLOOD CELLS / PLATELET COUNT / MEAN CORPUSCULAR HEMOGLOBIN CONCENTRATION / MEAN CORPUSCULAR VOLUME: tissue Blood
[1] = 6 mg/kg, 72 h, dose level High, time 3 day
[2] = 6 mg/kg, 72 h, tissue Plasma, dose level High, time 3 day
[3] = 6 mg/kg, 120 h, dose level High, time 5 day
[4] = 6 mg/kg, 120 h, tissue Plasma, dose level High, time 5 day
[5] = […], 72 h, dose 0.12 mg/Kg, dose level Low, time 3 day
[6] = […], 72 h, tissue Plasma, dose 0.12 mg/Kg, dose level Low, time 3 day
[7] = […], 120 h, dose 0.12 mg/Kg, dose level Low, time 5 day
[8] = […], 120 h, tissue Plasma, dose 0.12 mg/Kg, dose level Low, time 5 day

Substance: SODIUM NITROPRUSSIDE
- ABSOLUTE BASOPHIL [1]: 0 CELLS/uL
- ABSOLUTE EOSINOPHIL [1]: 0 CELLS/uL
- ABSOLUTE LYMPHOCYTE [1]: 16076 CELLS/uL
- ABSOLUTE MONOCYTE [1]: 195 CELLS/uL
- ABSOLUTE SEGMENTED NEUTROPHIL [1]: 1029 CELLS/uL
- BASOPHIL [1]: 0%
- EOSINOPHIL [1]: 0%
- ERYTHROCYTE COUNT [1]: 6.07 x10E6/uL
- HEMATOCRIT [1]: 38.07%
- HEMOGLOBIN [1]: 15 G/DL
- LEUKOCYTE COUNT [1]: 17.3 x10E3/uL
- LYMPHOCYTE [1]: 92.67%
- MEAN CORPUSCULAR HEMOGLOBIN [1]: 24.73 pg
- MONOCYTE [1]: 1%
- NEUTROPHIL [1]: 6.33%
- NUCLEATED RED BLOOD CELLS [1]: 0 /100WBC
- PLATELET COUNT [1]: 1432 x10E3/uL
- ALANINE AMINOTRANSFERASE [2]: 34.67 u/L
- ALBUMIN [2]: 4.5 G/DL
- ALKALINE PHOSPHATASE [2]: 308.33 u/L
- ASPARTATE AMINOTRANSFERASE [2]: 90.67 u/L
- BLOOD UREA NITROGEN [2]: 21.33 mg/dL
- CARBON DIOXIDE [2]: 23.67 mmol/L
- CHOLESTEROL [2]: 68 mg/dL
- CREATINE PHOSPHOKINASE [2]: 251 u/L
- CREATININE [2]: 0.17 mg/dL
- GLUCOSE [2]: 173 mg/dL
- LACTATE DEHYDROGENASE [2]: 383.67 u/L
- LIPASE [2]: 8.33 u/L
- PHOSPHORUS [2]: 13.27 mg/dL
- POTASSIUM [2]: 6.61 MEQ/L
- TOTAL BILIRUBIN [2]: 0.1 mg/dL
- TOTAL PROTEIN [2]: 6.4 G/DL
- URIC ACID [2]: 1.87 mg/dL
- ABSOLUTE BASOPHIL [3]: 0 CELLS/uL
- ABSOLUTE EOSINOPHIL [3]: 139 CELLS/uL
- ABSOLUTE LYMPHOCYTE [3]: 12315 CELLS/uL
- ABSOLUTE MONOCYTE [3]: 50.33 CELLS/uL
- ABSOLUTE SEGMENTED NEUTROPHIL [3]: 1129 CELLS/uL
- BASOPHIL [3]: 0%
- EOSINOPHIL [3]: 1%
- ERYTHROCYTE COUNT [3]: 5.93 x10E6/uL
- HEMATOCRIT [3]: 37.1%
- HEMOGLOBIN [3]: 14.97 G/DL
- LEUKOCYTE COUNT [3]: 13.63 x10E3/uL
- LYMPHOCYTE [3]: 90.33%
- MEAN CORPUSCULAR HEMOGLOBIN [3]: 25.2 pg
- MEAN CORPUSCULAR HEMOGLOBIN CONCENTRATION [3]: 40.33 G/DL
- MEAN CORPUSCULAR VOLUME [3]: 62.57 fL
- MONOCYTE [3]: 0.33%
- NEUTROPHIL [3]: 8.33%
- NUCLEATED RED BLOOD CELLS [3]: 0.33 /100WBC
- PLATELET COUNT [3]: 1277.67 x10E3/uL
- ALANINE AMINOTRANSFERASE [4]: 45.67 u/L
- ALBUMIN [4]: 4.5 G/DL
- ALKALINE PHOSPHATASE [4]: 128.33 u/L
- ASPARTATE AMINOTRANSFERASE [4]: 86 u/L
- CARBON DIOXIDE [4]: 18 mmol/L
- CHOLESTEROL [4]: 61.67 mg/dL
- CREATINE PHOSPHOKINASE [4]: 409.33 u/L
- CREATININE [4]: 0.23 mg/dL
- LACTATE DEHYDROGENASE [4]: 135.67 u/L
- LIPASE [4]: 8.33 u/L
- PHOSPHORUS [4]: 10.9 mg/dL
- POTASSIUM [4]: 16.23 MEQ/L
- TOTAL BILIRUBIN [4]: 0.13 mg/dL
- TOTAL PROTEIN [4]: 6.07 G/DL
- URIC ACID [4]: 1.4 mg/dL
- ABSOLUTE BASOPHIL [5]: 0 CELLS/uL
- ABSOLUTE EOSINOPHIL [5]: 0 CELLS/uL
- ABSOLUTE LYMPHOCYTE [5]: 13522.67 CELLS/uL
- ABSOLUTE MONOCYTE [5]: 88.33 CELLS/uL
- ABSOLUTE SEGMENTED NEUTROPHIL [5]: 1389 CELLS/uL
- BASOPHIL [5]: 0%
- EOSINOPHIL [5]: 0%
- ERYTHROCYTE COUNT [5]: 5.31 x10E6/uL
- HEMATOCRIT [5]: 34.4%
- HEMOGLOBIN [5]: 13.63 G/DL
- LEUKOCYTE COUNT [5]: 15 x10E3/uL
- MEAN CORPUSCULAR HEMOGLOBIN [5]: 25.67 pg
- MEAN CORPUSCULAR HEMOGLOBIN CONCENTRATION [5]: 39.63 G/DL
- MEAN CORPUSCULAR VOLUME [5]: 64.8 fL
- MONOCYTE [5]: 0.67%
- NEUTROPHIL [5]: 9.67%
- NUCLEATED RED BLOOD CELLS [5]: 0.33 /100WBC
- PLATELET COUNT [5]: 1321.67 x10E3/uL
- ALANINE AMINOTRANSFERASE [6]: 54.33 u/L
- ALBUMIN [6]: 4.1 G/DL
- ALKALINE PHOSPHATASE [6]: 342 u/L
- ASPARTATE AMINOTRANSFERASE [6]: 87.33 u/L
- BLOOD UREA NITROGEN [6]: 15 mg/dL
- CARBON DIOXIDE [6]: 26.67 mmol/L
- CHLORIDE [6]: 98.67 MEQ/L
- CHOLESTEROL [6]: 76 mg/dL
- CREATINE PHOSPHOKINASE [6]: 335.67 u/L
- CREATININE [6]: 0.11 mg/dL
- GLUCOSE [6]: 157.67 mg/dL
- LACTATE DEHYDROGENASE [6]: 223 u/L
- PHOSPHORUS [6]: 12.93 mg/dL
- POTASSIUM [6]: 6.73 MEQ/L
- TOTAL BILIRUBIN [6]: 0.23 mg/dL
- TOTAL PROTEIN [6]: 5.9 G/DL
- ABSOLUTE BASOPHIL [7]: 0 CELLS/uL
- ABSOLUTE EOSINOPHIL [7]: 39.33 CELLS/uL
- ABSOLUTE LYMPHOCYTE [7]: 10382.67 CELLS/uL
- ABSOLUTE MONOCYTE [7]: 0 CELLS/uL
- ABSOLUTE SEGMENTED NEUTROPHIL [7]: 444.67 CELLS/uL
- BASOPHIL [7]: 0%
- EOSINOPHIL [7]: 0.33%
- ERYTHROCYTE COUNT [7]: 5.02 x10E6/uL
- HEMATOCRIT [7]: 31.9%
- HEMOGLOBIN [7]: 12.83 G/DL
- LEUKOCYTE COUNT [7]: 10.87 x10E3/uL
- LYMPHOCYTE [7]: 95.67%
- MEAN CORPUSCULAR HEMOGLOBIN [7]: 25.6 pg
- MEAN CORPUSCULAR HEMOGLOBIN CONCENTRATION [7]: 40.23 G/DL
- MEAN CORPUSCULAR VOLUME [7]: 63.6 fL
- MONOCYTE [7]: 0%
- NEUTROPHIL [7]: 4%
- NUCLEATED RED BLOOD CELLS [7]: 0 /100WBC
- PLATELET COUNT [7]: 1212.67 x10E3/uL
- ALANINE AMINOTRANSFERASE [8]: 40.33 u/L
- ALKALINE PHOSPHATASE [8]: 391 u/L
- ASPARTATE AMINOTRANSFERASE [8]: 87.33 u/L
- BLOOD UREA NITROGEN [8]: 17 mg/dL
- CARBON DIOXIDE [8]: 28 mmol/L
- CHOLESTEROL [8]: 71.67 mg/dL
- CREATINE PHOSPHOKINASE [8]: 215.33 u/L
- CREATININE [8]: 0.14 mg/dL
- GLUCOSE [8]: 156.33 mg/dL
- LACTATE DEHYDROGENASE [8]: 79 u/L
- POTASSIUM [8]: 6.73 MEQ/L
- TOTAL BILIRUBIN [8]: 0.23 mg/dL
- TOTAL PROTEIN [8]: 5.87 G/DL
